Measured values reported in patent US12692532B2, “Compounds and methods for amine oxidase imaging” (ETH ZURICH, priority 2019, dated 2026).
Non-standard residues stand in square brackets, D forms with d. Residues, ends and D or L forms follow the SMILES beside them. *: point of attachment. X1 = Cc1c(CC(=O)*)c(=O)oc2c(F)c(OCCCN)c(F)cc12; X2 = Cc1c(CC(=O)*)c(=O)oc2c(F)c(O)c(F)cc12; dCha = N[C@H](CC1CCCCC1)C(=O)O; Ahx = NCCCCCC(=O)O

Assays:
[1] = system: amine-oxidase (LOX) in skin wound; assay: In vivo intradermal administration to mice, histological analysis of skin wound; settings: for fluorescence in cross section of wound after in vivo administration: 100 μM, 50 μL intradermally, skin harvested after five days
Procedure: Animals: Mice were housed and fed according to Swiss guidelines and all animal experiments were approved by the local veterinary authorities (Kantonales Veterinäramt Zürich). All mice used for these experiments are on a C57BL/6 background. Administration of Compounds 3, 4 and 5 into skin: Peptide solutions at 100 μM were brought to room temperature for 30 min. Male or female mice at 8 weeks of age were anesthetized by intraperitoneal injection of ketamine/xylazine (100 mg ketamine/5-10 mg xylazine per kg body weight), skin shaved and an injection of 50 μL was made intradermally into the back skin. Mice were housed for an additional five days and then skin harvested for histological analysis.
Skin tissue used for histology was harvested and immediately embedded and frozen in tissue freezing Medium® (Leica Biosystems, Wetzlar, Germany). Tissue sections (7 μM) were fixed using ice-cold acetone for 10 min at −20° C. and stained with propidium iodide to visualize nuclei. Images were taken using a 20× objective. For immunofluorescent analysis of collagen, antibodies against collagen I (Southern Biotech, Birmingham, AL, USA; 1310-01) or collagen III (Abcam, Cambridge, UK, ab7778) were used. Fixed tissue sections were incubated with 1% bovine serum albumin (BSA) in PBS for 30 min followed by collagen I (1:400 dilution in 1% BSA) or collagen III (1:800 dilution in 1% BSA) antibodies for 60 min at room temperature. After washing (3×5 min PBS), secondary antibodies (anti-rabbit AF488 (711-547-003) or anti-goat AF488 (705-545-147), Jackson ImmunoResearch) were incubated on the tissues for 30 min at room temperature (both at 1:400 dilution in 1% BSA) and nuclei visualized using propidium iodide. All images were taken using a 20× objective.

SSC13 ear tumor = assay: Staining of SSC13 ear tumor tissue sections; settings: 100 μM in PBS, 4 hours at 37° C.
Procedure: Skin tissue used for histology was harvested and immediately embedded and frozen in tissue freezing Medium® (Leica Biosystems, Wetzlar, Germany). Tissue sections (7 uM) were treated by the addition of 50 μL of each compound at 100 μM in PBS (Compounds 3, 4, 5, or 6) by pipette to completely cover the surface of the section, incubated at 37° C. for 4 hours in the dark, and washed 2× with PBS. Sections were fixed using ice-cold acetone for 10 min at −20° C. and stained with propidium iodide to visualize nuclei. Images were taken using a 20× objective.
For immunofluorescent analysis of collagen, antibodies against collagen I (Southern Biotech, 1310-01) or collagen III (Abcam, ab7778) were used. Fixed tissue sections were incubated with collagen I or collagen III antibodies for 60 min at room temperature. After washing, secondary antibodies (anti-rabbit AF488 (711-547-003) or anti-goat AF488 (705-545-147), Jackson ImmunoResearch) were incubated on the tissues for 30 min at room temperature and nuclei visualized using propidium iodide. All images were taken using a 20× objective.

[2] = system: LOX activity in mouse tissue homogenate; assay: Ex vivo fluorescence assay of amine oxidase (LOX) activity in mouse tissue homogenate; type: biochemical; settings: for fluorescent signal (RFU) with skin homogenate, comparison with oLOX probe: 10 μM, 24 h at 37° C., each at its absorbance and emission maximum
Procedure: (§1) Fluorescence experiments for determining amine oxidase activity of a given enzyme are conducted using a fluorescence plate reader and a standard 96-well black polystyrene plate with a clear flat bottom. To the plate 150 μL of the following solutions are added to individual wells, e.g. with at least three replicates: buffer (e.g. 25 mM at pH 7.5), a solution in buffer of the amine-oxidase reactive probe, e.g. Compound 2, (e.g. at 100 μM), a buffered solution of the sample containing an amine-oxidase at the desired concentration(s) (e.g. 40 μg/mL), and a buffered solution of the sample containing amine-oxidases with addition of the probe, e.g. Compound 2, (e.g. at 100 μM). The plate is incubated in the dark at 37° C. for a period of time between 15 min and 24 hours before measurements are taken. Fluorescence is measured by exciting the unmasked probe at the absorbance maximum (e.g. 360 nm) or at 405 nm, and measuring the fluorescence at the emission maximum of the probe, for example at 460 nm. Enzyme activity is observed as fluorescence measured relative to the untreated controls, for example as expressed in relative fluorescent units (RFUs). […] Any change, optionally any statistically relevant change, in fluorescence relative to the untreated controls is indicative of amine oxidase activity.
Skin tissue used for enzymatic analysis of LOX activity was harvested (1 cm×1 cm) and placed in 2 ml of ice-cold PBS. Skin tissue was homogenized using an Ultra-TURRAX homogenizer (KA®-Werke GmbH & CO. KG, Staufen, Germany) and samples were spun at 2000×g to pellet out tissue debris. The supernatant was further purified using a 0.2 μm filter. Tissue homogenates were then evaluated with regard to total in solution protein retrieval using a nanospec absorbance measurement standardized to BSA at 1 mg/mL (Pierce™, Thermo Fisher Scientific Inc, Waltham, USA). Homogenates were diluted to appropriate concentrations (e.g. 1 mg/ml total protein) with 25 mM PIPES, 0.5% Triton X-100 (Sigma Aldrich, St Louis, […], USA) and pre-incubated with the probe (10 μM or 100 μM) at 37° C. in the dark for the designated period of time prior to fluorescence measurements. The resultant fluorescence was then measured using a Tecan Spark 10M Multi-Mode Microplate Reader (Tecan, Männedorf, Switzerland) at ambient temperature with a filter for excitation/emission (e.g. 405/460 nm respectively) as defined for the experiment. Activity is observed as fluorescence measured, and is expressed in relative fluorescent units (RFUs). Graphical presentation and statistical analysis were carried out using Graphpad Prism 7 software, (GraphPad Software, Inc., San Diego, USA.) with statistical significance determined as p<0.05.

[3] = Absorption and emission spectroscopy, quantum yield; type: physicochemical; settings: excitation wavelength used for the emission scans of FIG. 2
Procedure: Absorption and emission spectroscopy. UV-visible spectra were obtained with a Cary-500 Scan spectrophotometer. The spectra were measured in quartz cuvettes (ThorLabs, CV10Q3500, Newton, NJ USA). Samples were irradiated with an LED transilluminator (Roithner Lasertechnik, LED405-06V, Vienna, Austria) emitting at a wavelength as stated with an incident intensity of ca. 2 mW cm^−2, measured with a power-meter (ThorLabs, PM100D, Newton, NJ USA) equipped with a Si photodiode detector (ThorLabs, S120VC, Newton, NJ USA). Fluorescence spectroscopy was measured in a Fluorolog 3 fluorimeter (Horiba Jobin-Yvon, Germany) fluorimeter with a cuvette sample changer for quartz cuvettes (ThorLabs, CV10Q3500F-E, Newton, NJ USA). All measurements were conducted at 25° C. in 50 mM PBS pH 7.4 buffer solution under red light for ambient illumination to avoid photoactivation.

[4] = molecular target: T1, recombinant human monoamine oxidase B (MAO-B) (Homo sapiens, UniProt P27338); assay: Fluorescence assay with recombinant monoamine oxidase B; type: biochemical; settings: 100 μM, 2 h at 37° C., Ex/Em 405/460 nm
T1 sequence (P27338 1-520): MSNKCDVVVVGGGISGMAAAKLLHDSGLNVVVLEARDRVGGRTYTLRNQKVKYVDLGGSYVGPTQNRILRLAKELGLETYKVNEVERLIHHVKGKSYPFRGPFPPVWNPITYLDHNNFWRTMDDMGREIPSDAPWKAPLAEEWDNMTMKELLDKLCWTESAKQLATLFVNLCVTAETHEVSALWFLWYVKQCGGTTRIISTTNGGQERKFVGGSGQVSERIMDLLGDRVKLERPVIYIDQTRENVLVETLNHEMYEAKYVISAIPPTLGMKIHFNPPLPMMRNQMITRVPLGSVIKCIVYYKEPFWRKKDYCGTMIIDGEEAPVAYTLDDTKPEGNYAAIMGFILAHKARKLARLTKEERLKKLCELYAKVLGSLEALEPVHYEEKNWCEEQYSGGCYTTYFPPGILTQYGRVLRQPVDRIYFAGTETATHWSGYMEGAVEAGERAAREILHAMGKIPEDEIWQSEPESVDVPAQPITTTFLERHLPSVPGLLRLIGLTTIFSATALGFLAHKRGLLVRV
Procedure: as §1

[5] = system: MAO A/MAO B in MCF-7 cells; assay: Confocal microscopy of MCF-7 cells treated with MAO probes; type: cell-based; design: blue channel (405 nm) fluorescence of the probe / colocalization with MitoTracker Red (405 nm and 561 nm overlay): dose or concentration left out as unconfirmed
Procedure: Cell culture: MCF-7 and SY5Y cells were obtained from the Health Protection Agency (www.HPA.org.uk) or the American Type Culture Collection. […] Culture medium DMEM high glucose, F-12KTM, L-glutamine (200 mM), penicillin (10.000 U/mL), streptomycin (10 mg/mL), and trypan blue solution were purchased from Sigma, Invitrogen, ATCC or BioConcept. Trypsin-EDTA (0.05%/0.02%) in Ca2+- and Mg2+-deficient phosphate buffered saline (PBS) (1:250) was purchased from Amimed. PBS (pH 7.4) was purchased from Invitrogen. […] Cell culture flasks as well as serological pipettes were purchased from BD Biosciences and Sarstedt. Ethylenediaminetetraacetic acid (EDTA) was purchased from Sigma-Aldrich. Hoechst 33342 was purchased from Invitrogen. MitoTracker Red mitochondrial staining dye and live cell imaging solution were purchased from ThermoFisher.
Confocal Microscopy: Fluorescence images of cells were collected using a Nikon Eclipse T1 microscope equipped with a Yokogawa spinning-disk confocal scanner unit CSU-W1-T2, two sCMOS cameras (Orca Flash 4.0 V2) and a LUDL BioPrecision2 stage with piezo focus. Emission in the blue channel was filtered with a 450/50 bandpass filter, emission in the green channel was filtered with a 525/50 bandpass filter and emission in the far-red channel with a 700/75 bandpass filter. Fluorescence images were obtained using an oil-immersion objective with a magnification of 100×1.49 CFI Apo TIRF. The microscope was operated using VisiVIEW (Metamorph).
Prior to the measurement, cells were seeded at a density of 10′000 cells/well in ibidi 8-well plates and were grown for 1 day in DMEM (10% FCS) at 37° C. Afterwards cells were washed with PBS and fresh DMEM was added. Compounds were added to the cells as stock solutions in PBS to reach the final […] concentration. […] Cells were washed with PBS and the live cell imaging solution (200 μL) was added. The live cells were then immediately examined on a confocal microscope (Vistron Spinning Disk). For detection of the coumarin-activation a laser line 405 nm and for MitoTracker a laser line of 561 nm was used.

[6] = 1 h pretreatment with Selegiline, then 10 mM probe 1 h

1-Ahx-[ProHypGly]7—NH2 [Compound 4]
fluorescence in cross section of wound after in vivo administration [1]: fluorescence can be clearly visualized at the locations where the peptide-bound probe has been unmasked

1-Ahx-[ProProGly]7—NH2 [Compound 5]
fluorescence in cross section of wound after in vivo administration [1]: fluorescence can be clearly visualized at the locations where the peptide-bound probe has been unmasked

1-[ProHypGly]3-AopProGly-[ProHypGly]3—NH2 [Compound 3]
fluorescence in cross section of wound after in vivo administration [1]: fluorescence can be clearly visualized at the locations where the peptide-bound probe has been unmasked
localization of the probe in the wound ([1]; FIG. 31 (a) center): localizes the probe to collagen and elastin at the sites of LOX-mediated crosslinking
blue fluorescence of the probe in tumor section (SSC13 ear tumor): seen around the periphery of the tumor but is strongest near the side of attachment to the cartilage

3-carboxy-6,8-difluoro-7-(4-((tert-butoxycarbonyl)amino)propoxy)-coumarin [Compound 1]
HPLC-MS trace of enzymatic conversion ([2]; after 18 h incubation, UV detection at 254 nm): enzymatic conversion of Compound 1 to PB

3-carboxy-6,8-difluoro-7-(4-((tert-butoxycarbonyl)amino)propoxy)-coumarin [Compound 2]
absorbance maximum [3]: 313 nm
fluorescent signal (RFU) with skin homogenate, comparison with oLOX probe [2]: significant increase in fluorescent signal
fluorescent signal (RFU) with heat-denatured skin homogenate ([2]; 100 μM, 1 h at 37° C., homogenate denatured 1.5 h at 90° C., Ex/Em 405/460 nm): significant decrease in fluorescent signal
fluorescent signal (RFU) with BAPN-inhibited skin homogenate ([2]; 100 μM, 1 h at 37° C., homogenate pretreated with 100 μM BAPN for 2 h, Ex/Em 405/460 nm): significant decrease in fluorescent signal
fluorescent signal (RFU) with lung, skin and liver homogenates ([2]; 100 μM, 18 h at 37° C., Ex/Em 405/460 nm): most significant increase in fluorescent signal was obtained for skin tissue type
fluorescent signal (RFU) with MAO-B compared to controls [4]: significant increase in fluorescent signal

Cc1c(CC(=O)NCCCCCC(=O)N[C@H](CC2CCCCC2)C(=O)N[C@H](CCCNC(=N)N)C(=O)N[C@H](CC2CCCCC2)C(=O)N[C@H](CCCNC(=N)N)C(=O)N[C@H](CC2CCCCC2)C(=O)N[C@H](CCCNC(=N)N)C(N)=O)c(=O)oc2c(F)c(O)c(F)cc12 [PB peptide, PB-Ahx-(ChaR)3—NH2, reference compound] ({X2-Ahx}-[dCha][dR][dCha][dR][dCha][dR]-NH2)
blue channel (405 nm) fluorescence of the probe ([5]; 1 h): fluorescence of the probe
colocalization with MitoTracker Red (405 nm and 561 nm overlay) ([5]; 1 h): lack colocalization

Cl.Cl.NCCCOc1ccc2c(c1)Oc1cc(OCCCN)ccc1C21OC(=O)c2ccccc21 [oLOX, 3′,6′-Bis(3-aminopropoxy)-3H-spiro[2-benzofuran-1,9′-xanthen]-3-one dihydrochloride, reference compound]
fluorescent signal (RFU) with skin homogenate, comparison with oLOX probe [2]: ns

Cc1c(CC(=O)NCCCCCC(=O)N[C@H](CC2CCCCC2)C(=O)N[C@H](CCCNC(=N)N)C(=O)N[C@H](CC2CCCCC2)C(=O)N[C@H](CCCNC(=N)N)C(=O)N[C@H](CC2CCCCC2)C(=O)N[C@H](CCCNC(=N)N)C(N)=O)c(=O)oc2c(F)c(OCCCN)c(F)cc12 [peptide MAO probe, 1-Ahx-[Char]3—NH2] ({X1-Ahx}-[dCha][dR][dCha][dR][dCha][dR]-NH2)
blue channel (405 nm) fluorescence of the probe after MAO-B inhibitor [5, 6]: very little fluorescence
colocalization with MitoTracker Red after MAO-B inhibitor [5, 6]: only poor colocalization
